Values joined by “and” are separate entries in the source; they are usually repeats but may differ in a detail not shown here. Equal values may be shown once.
What was measured:
MCT1 = target: T1, MCT1 (Homo sapiens, UniProt P53985); assay: [14C]L-lactate uptake by HIBCPP cells; format: cell-based; settings: IB pH 6.0
T1 sequence (P53985 1-500): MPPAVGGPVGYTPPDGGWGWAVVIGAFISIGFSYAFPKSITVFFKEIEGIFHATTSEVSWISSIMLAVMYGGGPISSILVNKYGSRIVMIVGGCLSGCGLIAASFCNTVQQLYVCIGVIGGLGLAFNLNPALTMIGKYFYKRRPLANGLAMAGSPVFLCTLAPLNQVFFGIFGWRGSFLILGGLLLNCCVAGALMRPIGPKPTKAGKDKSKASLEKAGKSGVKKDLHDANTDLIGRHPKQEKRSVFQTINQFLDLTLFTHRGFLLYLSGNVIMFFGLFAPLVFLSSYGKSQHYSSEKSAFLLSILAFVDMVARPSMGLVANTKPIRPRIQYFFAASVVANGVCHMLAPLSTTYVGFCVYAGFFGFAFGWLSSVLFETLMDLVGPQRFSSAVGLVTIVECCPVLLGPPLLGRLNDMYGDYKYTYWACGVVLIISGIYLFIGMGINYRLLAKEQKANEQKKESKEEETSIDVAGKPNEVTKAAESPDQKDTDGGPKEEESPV

HIBCPP cell layer = assay: Transcellular transport; settings: for Papp,correct in the BL-to-AP direction relative to the AP-to-BL direction: BL-to-AP greater than AP-to-BL; for Papp,correct AP-to-BL / Papp,correct BL-to-AP: corrected by lucifer yellow
Transcellular transport = settings: human
SLC35F2 = target: T2, SLC35F2 (Homo sapiens, UniProt Q8IXU6); assay: YM155 uptake by HIBCPP cells; format: cell-based; settings: 30 s
T2 sequence (Q8IXU6 1-374): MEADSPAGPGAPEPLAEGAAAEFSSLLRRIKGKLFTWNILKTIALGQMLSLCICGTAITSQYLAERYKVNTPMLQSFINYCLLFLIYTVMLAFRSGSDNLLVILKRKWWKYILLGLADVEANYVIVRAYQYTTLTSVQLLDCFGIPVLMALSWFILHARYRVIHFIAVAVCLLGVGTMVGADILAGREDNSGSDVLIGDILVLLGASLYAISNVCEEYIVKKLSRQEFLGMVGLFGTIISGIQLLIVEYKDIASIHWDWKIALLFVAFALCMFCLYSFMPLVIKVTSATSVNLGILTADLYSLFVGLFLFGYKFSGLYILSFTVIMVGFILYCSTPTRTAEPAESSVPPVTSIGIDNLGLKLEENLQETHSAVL

LAT1 = LAT1 (Homo sapiens, UniProt Q01650); assay: Gabapentin uptake by HIBCPP cells; format: cell-based
Chain of LAT1 (Q01650 whole entry): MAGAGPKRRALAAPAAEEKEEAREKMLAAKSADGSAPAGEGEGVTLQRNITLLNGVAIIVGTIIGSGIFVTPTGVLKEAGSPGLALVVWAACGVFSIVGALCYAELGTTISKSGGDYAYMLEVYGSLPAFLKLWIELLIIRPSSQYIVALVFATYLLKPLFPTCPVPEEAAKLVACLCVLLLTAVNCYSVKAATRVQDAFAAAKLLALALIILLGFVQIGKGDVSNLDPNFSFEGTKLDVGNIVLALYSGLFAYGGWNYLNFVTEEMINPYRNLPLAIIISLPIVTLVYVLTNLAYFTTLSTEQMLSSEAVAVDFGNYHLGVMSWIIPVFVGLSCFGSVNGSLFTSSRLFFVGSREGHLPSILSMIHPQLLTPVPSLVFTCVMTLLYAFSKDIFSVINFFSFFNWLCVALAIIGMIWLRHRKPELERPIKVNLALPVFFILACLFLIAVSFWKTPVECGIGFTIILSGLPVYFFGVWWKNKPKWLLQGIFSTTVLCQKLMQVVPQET
Chain of LAT1 (P08195 102-630 partner): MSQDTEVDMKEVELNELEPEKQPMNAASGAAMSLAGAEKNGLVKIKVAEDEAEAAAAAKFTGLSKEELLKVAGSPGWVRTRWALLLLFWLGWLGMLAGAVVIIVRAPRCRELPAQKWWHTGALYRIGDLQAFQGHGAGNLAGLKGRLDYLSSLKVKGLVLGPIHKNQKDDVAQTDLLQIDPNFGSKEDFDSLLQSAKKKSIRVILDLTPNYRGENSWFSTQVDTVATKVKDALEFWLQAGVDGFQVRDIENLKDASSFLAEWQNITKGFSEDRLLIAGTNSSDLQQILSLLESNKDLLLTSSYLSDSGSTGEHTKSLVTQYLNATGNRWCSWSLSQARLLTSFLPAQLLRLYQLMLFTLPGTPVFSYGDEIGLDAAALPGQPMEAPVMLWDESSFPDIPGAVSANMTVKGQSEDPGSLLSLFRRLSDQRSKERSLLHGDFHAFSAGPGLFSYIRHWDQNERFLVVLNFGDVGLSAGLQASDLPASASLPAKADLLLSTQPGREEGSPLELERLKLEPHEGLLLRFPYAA

GLUT1 = target: T3, GLUT1 (Homo sapiens, UniProt P11166); assay: [3H]3-O-methylglucose uptake by HIBCPP cells; format: cell-based; settings: 10 s, glucose-free IB
T3 sequence (P11166 1-492): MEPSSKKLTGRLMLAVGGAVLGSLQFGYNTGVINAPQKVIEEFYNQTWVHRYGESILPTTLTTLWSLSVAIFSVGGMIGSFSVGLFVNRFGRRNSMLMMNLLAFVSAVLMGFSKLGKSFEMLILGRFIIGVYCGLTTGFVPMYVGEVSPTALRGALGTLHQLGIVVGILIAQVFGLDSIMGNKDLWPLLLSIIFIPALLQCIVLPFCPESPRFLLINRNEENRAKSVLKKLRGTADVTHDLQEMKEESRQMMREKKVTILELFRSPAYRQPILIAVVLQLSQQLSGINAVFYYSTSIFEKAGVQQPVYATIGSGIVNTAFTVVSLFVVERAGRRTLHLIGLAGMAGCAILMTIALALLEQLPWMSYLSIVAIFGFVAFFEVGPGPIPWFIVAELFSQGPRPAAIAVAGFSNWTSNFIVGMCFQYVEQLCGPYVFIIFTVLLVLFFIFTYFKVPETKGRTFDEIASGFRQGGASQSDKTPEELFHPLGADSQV

GLAST = GLAST (Homo sapiens, UniProt P43003); assay: [3H]L-glutamate uptake by HIBCPP cells; format: cell-based; settings: 1 min
Chain of GLAST (P43003 whole entry): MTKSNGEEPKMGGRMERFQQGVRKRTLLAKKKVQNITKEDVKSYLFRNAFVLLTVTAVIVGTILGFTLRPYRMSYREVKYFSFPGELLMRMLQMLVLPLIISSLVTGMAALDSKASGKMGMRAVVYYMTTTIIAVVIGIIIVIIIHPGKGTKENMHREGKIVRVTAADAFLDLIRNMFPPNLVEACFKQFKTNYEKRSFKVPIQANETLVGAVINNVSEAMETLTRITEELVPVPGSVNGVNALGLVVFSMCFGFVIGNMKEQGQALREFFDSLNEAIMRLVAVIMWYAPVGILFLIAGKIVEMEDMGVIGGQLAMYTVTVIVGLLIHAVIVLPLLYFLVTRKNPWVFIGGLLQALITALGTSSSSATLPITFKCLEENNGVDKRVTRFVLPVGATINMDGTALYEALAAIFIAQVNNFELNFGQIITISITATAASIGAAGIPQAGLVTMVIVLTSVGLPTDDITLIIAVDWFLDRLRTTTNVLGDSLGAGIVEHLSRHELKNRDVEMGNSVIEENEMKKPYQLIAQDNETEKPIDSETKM

CAT1 = CAT1 (Homo sapiens, UniProt P30825); assay: [3H]L-arginine uptake by HIBCPP cells; format: cell-based; settings: for Relative uptake (% of control): 1 min
Chain of CAT1 (P30825 whole entry): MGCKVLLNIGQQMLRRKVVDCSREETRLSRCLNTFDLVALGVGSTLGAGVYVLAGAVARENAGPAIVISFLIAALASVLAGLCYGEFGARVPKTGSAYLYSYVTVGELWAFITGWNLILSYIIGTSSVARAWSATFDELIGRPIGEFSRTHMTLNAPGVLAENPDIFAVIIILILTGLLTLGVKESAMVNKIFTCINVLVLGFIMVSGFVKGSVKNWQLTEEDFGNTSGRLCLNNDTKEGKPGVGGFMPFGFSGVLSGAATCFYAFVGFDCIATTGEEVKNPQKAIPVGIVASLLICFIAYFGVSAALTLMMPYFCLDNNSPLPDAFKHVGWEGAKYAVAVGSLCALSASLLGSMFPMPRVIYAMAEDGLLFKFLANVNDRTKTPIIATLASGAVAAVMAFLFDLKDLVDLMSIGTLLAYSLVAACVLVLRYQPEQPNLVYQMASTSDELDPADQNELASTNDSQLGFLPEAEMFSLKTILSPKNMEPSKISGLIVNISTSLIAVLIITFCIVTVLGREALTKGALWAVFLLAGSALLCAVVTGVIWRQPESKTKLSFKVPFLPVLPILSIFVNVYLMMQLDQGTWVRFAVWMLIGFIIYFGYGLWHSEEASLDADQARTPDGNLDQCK

PMAT = assay: MPP+ uptake by HIBCPP cells; format: cell-based, human; settings: 5 min
OATP1B3 = assay: Telmisartan uptake by HIBCPP cells; format: cell-based, human; settings: telmisartan uptake at 4°C, 30 s
[1] = Papp,correct (AP-to-BL)/Papp,correct (BL-to-AP)

Cc1[nH]nc(C(F)(F)F)c1Cc1sc2c(c1C(=O)N1C[C@](C)(O)CO1)c(=O)n(C)c(=O)n2C(C)C [AZD3965]
Relative uptake (% of control) (MCT1; [14C]L-lactate uptake + 20 nM AZD3965, 30 s): 28.0 % of control and 28.0 ± 1.6 % of control

O=C1CN(/N=C/c2ccc(-c3ccc([N+](=O)[O-])cc3)o2)C(O)=N1 [Dantrolene, Dantrolene sodium]
Papp,correct in the BL-to-AP direction relative to the AP-to-BL direction (HIBCPP cell layer): 2 times | Efflux ratio (HIBCPP cell layer; [1]): 0.52 | Papp A→B (Transcellular transport): 5.98 ± 0.77 ×10⁻⁶ cm/s | Papp A→B at 2 h (Transcellular transport): 9.28 ± 0.77 ×10⁻⁶ cm/s | Papp B→A (Transcellular transport): 11.5 ± 0.9 ×10⁻⁶ cm/s | Papp B→A at 2 h (Transcellular transport): 14.8 ± 0.9 ×10⁻⁶ cm/s

NC(N)=Nc1nc(CSCCC(N)=NS(N)(=O)=O)cs1 [Famotidine]
Relative uptake (% of control) (SLC35F2; YM155 uptake + 1 mM famotidine): 40.0 ± 8.5 % of control

NCC1(CC(=O)O)CCCCC1 [Gabapentin]
Efflux ratio (HIBCPP cell layer; [1]): 50.7 | Papp A→B (Transcellular transport): 10.8 ± 0.6 ×10⁻⁶ cm/s | Papp A→B at 2 h (Transcellular transport): 14.1 ± 0.6 ×10⁻⁶ cm/s | Papp B→A (Transcellular transport): 0.213 ± 0.078 ×10⁻⁶ cm/s | Papp B→A at 2 h (Transcellular transport): 3 ± 0.08 ×10⁻⁶ cm/s | Relative uptake (% of control) (LAT1; gabapentin uptake at 4°C, 1 min): 9.24 ± 0.54 % of control | Decrease of uptake at low temperatures (LAT1; gabapentin uptake, low temperature (4°C)): > 90% | Reduction of uptake into HIBCPP cells (LAT1; gabapentin, at 4 °C or in the presence of respective inhibitor): more than 80%

OC[C@H]1OC(O)[C@H](O)[C@@H](O)[C@@H]1O (some centres unmarked) [Glucose]
Relative uptake (% of control) (GLUT1; [3H]3-O-methylglucose uptake + 5.6 mM glucose): 54.7 ± 1.4 % of control

Nc1cc(COc2c(Cl)cc(C[C@H](N)C(=O)O)cc2Cl)c2oc(-c3ccccc3)nc2c1 [JPH203]
Relative uptake (% of control) (LAT1; gabapentin uptake + 10 μM JPH203, 1 min): 13.1 ± 0.2 % of control

N[C@@H](CC(=O)O)C(=O)O [L-Aspartic acid]
Relative uptake (% of control) (GLAST; [3H]L-glutamate uptake + 1 mM L-aspartic acid): 65.3 ± 4.9 % of control | Relative uptake (% of control) (GLAST; [3H]L-glutamate uptake + 1 mM L-aspartic acid, listed as L-aspartic acid): 65.3 % of control

NCCC[C@H](N)C(=O)O [L-Ornithine]
Relative uptake (% of control) (CAT1; [3H]L-arginine uptake + 1 mM L-ornithine): 18.7 ± 0.2 % of control

C[n+]1ccc(-c2ccccc2)cc1 [MPP^+, 1-methyl-4-phenylpyridinium]
Efflux ratio (HIBCPP cell layer; [1]): 1.03 | Relative uptake (% of control) (PMAT; MPP+ uptake at 4°C): 22.2 ± 5.5 % of control

NCCc1c[nH]c2ccc(O)cc12 [Serotonin]
Relative uptake (% of control) (PMAT; MPP+ uptake + 1 mM serotonin): 48.6 ± 5.1 % of control

CCCc1nc2c(C)cc(-c3nc4ccccc4n3C)cc2n1Cc1ccc(-c2ccccc2C(=O)O)cc1 [Telmisartan]
Papp A→B at 2 h (Transcellular transport): 0.9 ± 0.23 ×10⁻⁶ cm/s | Papp B→A (Transcellular transport): 10.5 ± 3.3 ×10⁻⁶ cm/s | Papp B→A at 2 h (Transcellular transport): 13.8 ± 3.3 ×10⁻⁶ cm/s | Efflux ratio (Transcellular transport; Efflux ratio, Papp,correct (AP-to-BL)/Papp,correct (BL-to-AP)): < 1 | Relative uptake (% of control) (OATP1B3): 22.9 ± 1.4 % of control

COCCn1c2c([n+](Cc3cnccn3)c1C)C(=O)c1ccccc1C2=O [YM155]
Papp A→B (Transcellular transport): 3.36 ± 0.34 ×10⁻⁶ cm/s | Papp A→B at 2 h (Transcellular transport): 6.66 ± 0.34 ×10⁻⁶ cm/s | Papp B→A (Transcellular transport): 1.32 ± 0.37 ×10⁻⁶ cm/s | Papp B→A at 2 h (Transcellular transport): 4.59 ± 0.37 ×10⁻⁶ cm/s | Relative uptake (% of control) (SLC35F2; YM155 uptake at 4°C): 27.8 ± 3.0 % of control

[3H]CO[C@H]1[C@H](O)[C@@H](CO)OC(O)[C@@H]1O (stereo partly drawn) [[^3H]3-O-Methylglucose, methyl-D-glucose 3-O-[methyl-^3H]]
Efflux ratio (HIBCPP cell layer; [1]): 1.05 | Relative uptake (% of control) (GLUT1; [3H]3-O-methylglucose uptake at 4°C): 14.0 ± 1.3 % of control

NC(N)=NCCC[C@H](N)C(=O)O [[^3H]L-Arginine, arginine L-[2,3,4-^3H]]
Efflux ratio (HIBCPP cell layer; [1]): exceed 1 | Relative uptake (% of control) (CAT1; [3H]L-arginine uptake at 4°C): 6.80 ± 0.69 % of control | Decrease of uptake at low temperatures (CAT1; [3H]L-arginine uptake, low temperature (4°C)): > 90% | Reduction of uptake into HIBCPP cells (CAT1; [3H]L-arginine, at 4 °C or in the presence of respective inhibitor): more than 80%

[14CH3][14CH](O)[14C](=O)[O-].[Na+] [[^14C]L-Lactate, lactic acid L-[^14C(U)] Na salt]
Papp AP-to-BL (HIBCPP cell layer; AP side pH 6.0 BL side pH 7.4): 30.6 ± 2.0 × 10^–6 cm/sec | Papp BL-to-AP (HIBCPP cell layer; AP side pH 6.0 BL side pH 7.4): 4.71 ± 0.14 × 10^–6 cm/sec | Efflux ratio (HIBCPP cell layer; AP side pH 6.0 BL side pH 7.4, Papp,correct (AP-to-BL)/(BL-to-AP)): 19.0 | Papp,correct AP-to-BL (HIBCPP cell layer; AP side pH 6.0 BL side pH 7.4): 27.3 ± 2.0 × 10^–6 cm/sec | Papp,correct BL-to-AP (HIBCPP cell layer; AP side pH 6.0 BL side pH 7.4): 1.44 ± 0.14 × 10^–6 cm/sec | Papp AP-to-BL (HIBCPP cell layer; AP side pH 7.4 BL side pH 6.0): 3.05 ± 0.09 × 10^–6 cm/sec | Papp BL-to-AP (HIBCPP cell layer; AP side pH 7.4 BL side pH 6.0): 11.5 ± 0.1 × 10^–6 cm/sec | Papp,correct BL-to-AP (HIBCPP cell layer; AP side pH 7.4 BL side pH 6.0): 8.20 ± 0.11 × 10^–6 cm/sec | Papp AP-to-BL (HIBCPP cell layer; AP side pH 7.4 BL side pH 7.4): 9.56 ± 0.20 × 10^–6 cm/sec | Papp BL-to-AP (HIBCPP cell layer; AP side pH 7.4 BL side pH 7.4): 8.84 ± 0.36 × 10^–6 cm/sec | Efflux ratio (HIBCPP cell layer; AP side pH 7.4 BL side pH 7.4, Papp,correct (AP-to-BL)/(BL-to-AP)): 1.12 | Papp,correct AP-to-BL (HIBCPP cell layer; AP side pH 7.4 BL side pH 7.4): 6.26 ± 0.20 × 10^–6 cm/sec | Papp,correct BL-to-AP (HIBCPP cell layer; AP side pH 7.4 BL side pH 7.4): 5.57 ± 0.36 × 10^–6 cm/sec | Relative uptake (% of control) (MCT1; [14C]L-lactate uptake at 4°C, 30 s): 17.7 % of control and 17.7 ± 0.4 % of control

glutamic acid L-[2,3,4-^3H] [[^3H]L-Glutamate]
Relative uptake (% of control) (GLAST; [3H]L-glutamate uptake at 4°C): 17.7 ± 3.0 % of control | Relative uptake (% of control) (GLAST; [3H]L-glutamate uptake at 4°C, listed as [^3H]L-glutamate): 17.7 % of control | Papp,correct in the BL-to-AP direction relative to the AP-to-BL direction (HIBCPP cell layer): approximately 2 times | Efflux ratio (HIBCPP cell layer; [1]): 0.45 | Efflux ratio (HIBCPP cell layer; Papp,correct (AP-to-BL)/Papp,correct (BL-to-AP), listed as [^3H]L-glutamate): below 1

— publication PMC12913247 (Pharmaceutical Research, 2025)
